Reference: patent US20210145722A1, “ACTIVE SUBSTANCE COMBINATIONS OF N-(4-AMINO-2-METHYLQUINOLIN-6-YL)-2-((4-ETHYLPHENOXY)METHYL)BENZAMIDE AND ONE OR MORE COSMETICALLY OR DERMATOLOGICALLY ACCEPTABLE FRAGRANCES” (BEIERSDORF AG, priority 2017, published 2021)
Read-outs that look alike come from different tables or passages of the source.

Legend:
[1] = LDH (lactate dehydrogenase) cytotoxicity assay, fibroblasts
Method: The third assay performed is the LDH (lactate dehydrogenase) cytotoxicity assay. In this assay, the metabolic enzyme LDH is detected in the medium supernatant of the cell monolayer by adding a substrate for the enzyme to the cell culture supernatant. Reaction of the latter produces a color change, which is determined photometrically. The magnitude of the color change correlates here with the amount of LDH in the cell culture supernatant.
For all assays, the active substances were present as 1000× stocks dissolved to 10 mM in DMSO and were diluted 1:1000 in the appropriate cell culture medium for use.

subcutaneous adipocytes = experiment: Lipid assay (AdipoRed staining of differentiated adipocytes); type: cell-based; details: combination with 10 ng/ml N-(4-amino-2-methylquinolin-6-yl)-2-((4-ethylphenoxy)methyl)benzamide; one week treatment
Method: The lipid assay is performed on subcutaneous adipocytes. Cell culture dishes are inoculated with preadipocytes, which undergo differentiation into adipocytes. This is followed by treatment with the active substance for one week, during which the cells synthesize lipids and store them in vesicles. The total amount of lipid as a function of active substance effects is determined at the end of the culture period. This is done by staining the cell monolayer with the lipophilic fluorescent dye AdipoRed, followed by quantification by fluorescence spectroscopy.

dermal fibroblasts = experiment: BrdU viability assay (cell division rate); type: cell-based; details: combination with 10 ng/ml N-(4-amino-2-methylquinolin-6-yl)-2-((4-ethylphenoxy)methyl)benzamide; 24 h treatment
Method: For the viability assay, dermal fibroblasts were treated with active substances/active substance combinations in the cell culture medium for 24 h and during this time were provided with BrdU (5-bromodeoxyuridine). The cells take up this synthetic nucleic acid, which is detectable by fluorescence detection, and incorporate it into newly synthesized genetic material during cell division. The fluorescence of the cell monolayer is then measured after 24 h, the intensity of which is ultimately a measure of the cell division rate during treatment with the active substance. This allows conclusions to be drawn about the effect of the individual active substances on cell viability.

[2] = combination with 10 ng/ml N-(4-amino-2-methylquinolin-6-yl)-2-((4-ethylphenoxy)methyl)benzamide, table does not say whether fibroblasts or adipocytes

Row | Compound | Assay in which the combination showed better activity than the corresponding active substance alone: LDH [1, 2] | Assay in which the combination showed better activity than the corresponding active substance alone: Lipid (subcutaneous adipocytes) | also measured
1 | CC/C=C\CCO [Hexenol cis-3] | LDH | Lipid | Assay in which the combination showed better activity than the corresponding active substance alone: BrdU (dermal fibroblasts): BrdU
2 | CC(C)=CCCC(C)=CCCC(C)=CCO [Farnesol] | LDH | – | –
3 | CC(=O)C1(C)CC2=C(CCCC2(C)C)CC1C (centres unmarked) [Iso E Super] | LDH | Lipid | –
4 | O=C(C=Cc1ccccc1)OCc1ccccc1 [Benzyl cinnamate] | – | Lipid | –
5 | Cc1ccc(C(C)C)c(O)c1 [Thymol cryst., Thymol] | LDH | – | –
6 | C=C(C)[C@H]1CC=C(C)CC1 [Limonene D pure, Limonene D] | – | Lipid | –
7 | C=CCc1ccc(O)c(OC)c1 [Eugenol] | – | – | Assay in which the combination showed better activity than the corresponding active substance alone: BrdU (dermal fibroblasts): BrdU
8 | CCCCCC1C(=O)CCC1CC(=O)OC (centres unmarked) [Hedion] | LDH | Lipid | Assay in which the combination showed better activity than the corresponding active substance alone: BrdU (dermal fibroblasts): BrdU
9 | CC(C=O)Cc1ccc(C(C)(C)C)cc1 (centres unmarked) [Lilial] | LDH | – | –
10 | CCOc1cc(C=O)ccc1O [Ethyl vanillin] | – | Lipid | –
11 | C=CC(C)(O)CCC=C(C)C (centres unmarked) [Linalool aroma, Linalool] | LDH | Lipid | –
12 | C=CC(C)(O)CCC=C(C)CC (mixture of isomers) [Ethyl linalool] | – | Lipid | –
13 | CC(CC=O)CCCC(C)(C)O (centres unmarked) [Hydroxycitronellal] | LDH | – | –
14 | CCCCCC#CC(=O)OC [Methyl heptine carbonate] | LDH | Lipid | –
15 | CC(C)=CCCC(C)CCO (centres unmarked) [Citronellol 950, Citronellol] | LDH | Lipid | –
16 | C=CC(C)(CCC=C(C)C)OC(C)=O (centres unmarked) [Linalyl acetate] | LDH | – | –
17 | CC(C)=CCCC(C)=CC=O [Citral 95, Citral] | – | – | Assay in which the combination showed better activity than the corresponding active substance alone: BrdU (dermal fibroblasts): BrdU
18 | O=C(OCc1ccccc1)c1ccccc1O [Benzyl salicylate] | – | – | Assay in which the combination showed better activity than the corresponding active substance alone: LDH [1]: LDH
19 | OCc1ccccc1 [Benzyl alcohol DD, Benzyl alcohol] | – | Lipid | –
20 | O=C1CCCCCCCCCCCCCCO1 [Macrolide supra] | – | Lipid | –
21 | C=CC(C)CCCC(C)(C)O (centres unmarked) [Dihydromyrcenol] | – | Lipid | –
22 | CCCCCCOC(=O)c1ccccc1O [Hexyl salicylate] | LDH | Lipid | –
23 | OCCc1ccccc1 [Phenylethyl alcohol] | – | – | Assay in which the combination showed better activity than the corresponding active substance alone: BrdU (dermal fibroblasts): BrdU
